The values that follow come from patent US4724237A, “2-substituted-aminomethyl-1,4-benzodiazepines” (Merck & Co., Inc., priority 1984, dated 1988).

SMILES strings stand for the structures. Structures can show the parent of a compound that is named as a salt. Where two headings read alike, the source gives them in different places. Square brackets hold non-standard residues; d marks the D form. Peptide text beside a SMILES is read from it. * marks the point of attachment. sY = N[C@@H](Cc1ccc(OS(=O)(=O)O)cc1)C(=O)O; Cbz = O=C(OCc1ccccc1)*; Boc = CC(C)(C)OC(=O)*

The target of experiment [1] is T1, CCK receptor (brain) (Cavia porcellus, UniProt H0VZC5).
T1 construct: The cerebral cortex was dissected and used as a receptor source; from tissue; host or cells: cerebral cortex of male Hartley guinea pig, membrane homogenate
Nature of the experiment: CCK receptor binding (brain) method, inhibition of ^125 I-CCK-33 binding. More on the design: species or system male Hartley guinea pig. Here is the method:
(§1) Screening of the novel compounds according to the present invention to determine biological activity and obtain an IC50 value for them, in order to identify significant CCK-antagonism, may be accomplished using an ^125 I-CCK receptor binding assay and in vitro isolated tissue preparations. These tests involve the following:
CCK receptor binding (brain) method
CCK-33 was radiolabeled and the binding was performed according to the description for the pancreas method, with modifications according to Saito et al., J. Neurochem., 37, 483-490, 1981.
Male Hartley guinea pigs (300-500 g) were sacrificed by decapitation, and the brains were removed and placed in ice-cold 50 mM Tris HCl (Trizma-7.4)[pH 7.4 at 25° C.]. The cerebral cortex was dissected and used as a receptor source and each gram of fresh guinea pig brain tissue was homogenized in 10 ml of Tris/Trizma buffer with a Brinkman polytron PT-10. The homogenates were centrifuged at 42,000 g for 15 minutes, then the resulting pellets were resuspended in 80 volumes of binding assay buffer (10 mM N-2-hydroxy-ethyl-piperazine-N'-2-ethanesulfonic acid (HEPES), 5 mM MgCl2, 1 mM ethylene glycol-bis-(β-amino-ethyl-ether-N,N'-tetraacetic acid (EGTA), 0.4% BSA and 0.25 mg/ml bacitracin, pH 6.5).
The remainder of the binding assay method was as described for the pancreas method, except that the reaction mixtures were incubated at 25° C. for 2 hours before centrifugation.

For experiment [2], the target named is T2, CCK receptor (pancreas) (Rattus norvegicus, UniProt P30551).
T2 construct: The whole pancreas of a male Sprague-Dawley rat (200-350 g); from tissue; host or cells: whole pancreas of male Sprague-Dawley rat, washed membrane homogenate
T2 sequence (P30551 1-444): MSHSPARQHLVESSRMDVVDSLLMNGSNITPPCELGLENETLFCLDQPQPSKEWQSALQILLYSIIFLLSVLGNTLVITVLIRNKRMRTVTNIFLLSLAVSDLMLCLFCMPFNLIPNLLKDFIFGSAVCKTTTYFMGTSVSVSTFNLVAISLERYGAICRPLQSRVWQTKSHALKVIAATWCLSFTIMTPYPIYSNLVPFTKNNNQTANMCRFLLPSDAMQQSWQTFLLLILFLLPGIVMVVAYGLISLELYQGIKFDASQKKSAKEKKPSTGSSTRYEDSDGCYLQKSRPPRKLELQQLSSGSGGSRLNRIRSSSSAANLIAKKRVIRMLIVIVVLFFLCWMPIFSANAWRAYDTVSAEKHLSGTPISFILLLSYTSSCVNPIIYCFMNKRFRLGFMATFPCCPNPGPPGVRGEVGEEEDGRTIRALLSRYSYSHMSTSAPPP
Nature of the experiment: CCK receptor binding (pancreas) method, inhibition of ^125 I-CCK-33 binding. As to conditions: for effect on the ^125 I-CCK receptor binding assay: additional protease inhibitors in the assay buffer. More on the design: species or system male Sprague-Dawley rat.
Source text: as §1
CCK receptor binding (pancreas) method
CCK-33 was radiolabeled with ^125 I-Bolton Hunter reagent (2000 Ci/mmole), as described by Sankara et al. (J. Biol. Chem., 254, 9349-9351, 1979).
The whole pancreas of a male Sprague-Dawley rat (200-350 g), which had been sacrificed by decapitation, was dissected free of fat tissue and homogenized in 20 volumes of ice-cold 50 mM Tris HCl (pH 7.7 at 25° C.) with a Brinkmann Polytron PT-10. The homogenates were centrifuged at 48,000 g for 10 minutes, then the resulting pellets were resuspended in Tris Buffer, centrifuged as above, and resuspended in 200 volumes of binding assay buffer (50 mM Tris HCl, pH 7.7 at 25° C., 5 mM dithiothreitol, 0.1 mM bacitracin, 1.2 mM phenylmethane sulfonyl fluoride and 0.5 mM o-phenanthroline).
All assays were run in duplicate or triplicate, and the reaction mixtures were incubated at 37° C. for 30 minutes and centrifuged in a Beckman Microfuge (4 minutes) immediately after adding 1 ml of ice-cold incubation buffer. The supernatant was aspirated and discarded, and the pellets were counted with a Beckman Gamma 5000.

For experiment [3], the system named is kappa receptor. Particulars: D. Roemer et al., Nature, 298, 759 (1982); cited from earlier work.
In experiment [4] the test system is rats. Particulars: J. E. Morley et al.; cited from earlier work.
Experiment [5] concerns CCK-receptor. Particulars: structure-function studies, in words; cited from earlier work.
For experiment [6] the following is noted: in words; cited from earlier work.
Setting [7] is: concentration required to cause inhibition of 50% of the ^125 I-CCK binding, pancreas, 37° C., 30 minutes.

T1 sequence (H0VZC5 entry or part of it): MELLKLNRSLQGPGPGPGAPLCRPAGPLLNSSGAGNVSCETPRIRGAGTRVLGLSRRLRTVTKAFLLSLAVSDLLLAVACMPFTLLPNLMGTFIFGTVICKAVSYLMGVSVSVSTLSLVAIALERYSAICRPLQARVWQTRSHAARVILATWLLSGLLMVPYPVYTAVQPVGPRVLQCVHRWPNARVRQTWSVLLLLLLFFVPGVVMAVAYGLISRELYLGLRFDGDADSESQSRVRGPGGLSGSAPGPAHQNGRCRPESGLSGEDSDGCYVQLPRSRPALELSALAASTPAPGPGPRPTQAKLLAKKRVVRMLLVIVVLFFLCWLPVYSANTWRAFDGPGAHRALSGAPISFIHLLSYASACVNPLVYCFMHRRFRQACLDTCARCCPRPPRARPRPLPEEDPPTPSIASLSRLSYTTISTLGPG

One may read the IC50 as the concentration that inhibits the measured activity by half. On to `COC(C(=O)NCC1CN=C(c2ccccc2F)c2ccccc2N1C)(c1ccccc1)C(F)(F)F` (stereo not drawn) [Example 10, 1-methyl-2-(2-methoxy-2-trifluoromethyl-2-phenylacetyl)aminomethyl-5-(2'-fluorophenyl)-2,3-dihydro-1H-1,4-benzodiazepine], for which the IC50 in experiment [1] is around 100 µM; in experiment [2] (setting [7]), 13 µM.

`CN1c2ccccc2C(c2ccccc2F)=NCC1CNC(=O)c1ccsc1` (stereo not drawn): the “opiate agonism, selectivity for the kappa receptor” value in experiment [3] was “opiate-agonist with selectivity for the kappa receptor”. Further, in experiment [4], the food intake result is listed as “increase food intake in rats”.

As for `CN1c2ccccc2C(c2ccccc2F)=NCC1CNC(=O)c1cc2ccccc2[nH]1` (stereo not drawn) [Example 1, 1-methyl-2-(2'-indolecarbonyl)aminomethyl-5-(2'-fluorophenyl)-2,3-dihydro-1H-1,4,-benzodiazepine], the IC50 was determined as 14 µM in experiment [1] (read-out: IC50 CCK, Brain) and 0.16 µM in experiment [2] (setting [7]).

Take `CC(=O)NCSCC(=O)NCC1CN=C(c2ccccc2F)c2ccccc2N1C` (stereo not drawn) [Example 13, 1-methyl-2-(acetamidomethylmercaptoacetyl)aminomethyl-5-(2'-fluorophenyl-2,3-dihydro-1H-1,4-benzodiazepine hydrate]: the IC50 in experiment [1] (read-out: IC50 CCK, Brain) is around 100 µM; in experiment [2] (setting [7]), 100 µM.

As to `COC(=O)[C@H](Cc1ccccc1)NCC1CN=C(c2ccccc2F)c2ccccc2N1C` (stereo partly drawn) [Example 5, 1-methyl-2-[1-(S)-1-methoxycarbonyl-2-phenylethylamino]methyl-5-(2'-fluorophenyl)-2,3-dihydro-1H-1,4-benzodiazepine], the IC50 in experiment [1] (read-out: IC50 CCK, Brain) is around 100 µM; in experiment [2] it was 1.6 µM.

Turning to `CSCC[C@H](NC(=O)OC(C)(C)C)C(=O)N[C@@H](CC(=O)O)C(=O)N[C@@H](Cc1ccccc1)C(N)=O` [Boc-Met-Asp-Phe-NH2] (Boc-Met-Asp-Phe-NH2), the CCK antagonism entry in experiment [5] is recorded as “can function as CCK antagonists”.

As to `CN1c2ccccc2C(c2ccccc2F)NCC1CNC(=O)c1ccsc1` (stereo not drawn) [Example 14, 1-methyl-2-(3-thiophenecarbonyl)aminomethyl-5-(2'-fluorophenyl)-2,3,4,5-tetrahydro-1H-1,4-benzodiazepine], the IC50 was around 100 µM in experiment [1] (read-out: IC50 CCK, Brain) and 4.8 µM in experiment [2] (setting [7]).

As to `c1cnc2c(c1)ccc1cccnc12` [o-phenanthroline, reference compound], in experiment [2], the “effect on the ^125 I-CCK receptor binding assay” value was “no effect”.

With `O=S(=O)(F)Cc1ccccc1` [phenyl-methane sulfonyl fluoride, reference compound], the “effect on the ^125 I-CCK receptor binding assay” value in experiment [2] is on record as “no effect”.

Regarding `CSCC[C@H](N)C(=O)N[C@@H](CC(=O)O)C(=O)N[C@@H](Cc1ccccc1)C(N)=O` [Met-Asp-Phe-NH2] (H-Met-Asp-Phe-NH2), the CCK antagonism entry in experiment [5] was “can function as CCK antagonists”.

As for `CN1c2ccccc2C(c2ccccc2F)=NCC1CNc1cccc(C(F)(F)F)c1` (stereo not drawn) [Example 6, 1-methyl-2-(3'-trifluoromethylphenyl)aminomethyl-5-(2'-fluorophenyl)-2,3-dihydro-1H-1,4-benzodiazepine], the IC50 in experiment [1] (read-out: IC50 CCK, Brain) was around 100 µM; in experiment [2], 2.2 µM.

With `CN1c2ccccc2C(c2ccccc2F)=NCC1CNC(=O)CCC(=O)OCc1ccccc1` (stereo not drawn) [Example 12, 1-methy-2-benzoylsuccinoylaminomethyl-5-(2'-fluorophenyl)-2,3-dihydro-1H-1,4-benzodiazepine], the IC50 was found to be 55 µM in experiment [1] and 45 µM in experiment [2] (setting [7]).

Regarding `CN1c2ccccc2C(c2ccccc2F)=NCC1CNC(=O)[C@H](Cc1c[nH]c2ccccc12)NC(=O)OC(C)(C)C` (stereo partly drawn) [Example 7, 1-methyl-2-[2-((1,1-dimethylethoxy)carbonyl)amino-3-(1H-indol-3-yl)propanoyl]aminomethyl-5-(2'-fluorophenyl)-2,3-dihydro-1H-1,4-benzodiazepine], the IC50 was 38.6 µM in experiment [1] and 4.1 µM in experiment [2].

For the molecule `CCCC(=O)Nc1nc2c(ncn2[C@@H]2O[C@@H]3COP(=O)(O)O[C@H]3[C@H]2OC(=O)CCC)c(=O)[nH]1` [dibutyryl cyclic GMP], in experiment [5], the CCK antagonism result is “most potent”.

In the case of `CN1c2ccccc2C(c2ccccc2F)=NCC1CNC(=O)Cc1cccc2sccc12` (stereo not drawn) [Example 2, 1-methyl-2-(4-thianaphthenemethylcarbonyl)aminomethyl-5-(2'-fluorophenyl)-2,3-dihydro-1H-1,4-benzodiazepine], the results for the IC50 in experiment [1] and in experiment [2] (setting [7]) were 23 µM and 0.45 µM, respectively.

In turn, `CC(=O)NCSCC(NC(=O)OC(C)(C)C)C(=O)NCC1CN=C(c2ccccc2F)c2ccccc2N1C` [Example 11, 1-methyl-2-[2(S)-((1,1-dimethylethoxy)carbonyl)amino-3-acetamidomethylmercaptopropanoyl]aminomethyl-5-(2'-fluorophenyl)-2,3-dihydro-1H-1,4-benzodiazepine hemihydrate] returned an IC50 in experiment [2] of 24 µM.

As to `CN1c2ccccc2C(c2ccccc2F)=NCC1CNC(=O)c1ccsc1` (single isomer, unassigned; (-)) [(-)-enantiomer], the analgesic activity entry in experiment [6] is “preferred for high analgesic activity”.

For `CN1c2ccccc2C(c2ccccc2F)=NCC1CNC(=O)[C@@H](O)c1ccccc1` (stereo partly drawn) [Example 3, 1-methyl-2-(2-L-hydroxy-2-phenylacetyl)aminomethyl-5-(2'-fluorophenyl)-2,3-dihydro-1H-1,4-benzodiazepine], the IC50 was around 100 µM in experiment [1] (read-out: IC50 CCK, Brain) and 0.6 µM in experiment [2].

For `CC(C)COC(=O)NCC1CN=C(c2ccccc2F)c2ccccc2N1C` (stereo not drawn) [Example 8, 1-methyl-2-[(2-methylpropoxy)carbonyl]aminomethyl-5-(2'-fluorophenyl)-2,3-dihydro-1H-1,4-benzodiazepine], the IC50 in experiment [1] (read-out: IC50 CCK, Brain) is around 100 µM; in experiment [2] (setting [7]), 5.8 µM.

Consider `CN1c2ccccc2C(c2ccccc2F)=NCC1CNC(=O)[C@@H](N)Cc1c[nH]c2ccccc12` (stereo partly drawn) [Example 9, 1-methyl-2-[2-amino-3-(1H-indol-3-yl)propanoyl]aminomethyl-5-(2'-fluorophenyl)-2,3-dihydro-1H-1,4-benzodiazepine dihydrochloride sesquihydrate], for which the half-inhibitory concentration (IC50) is around 100 µM in experiment [1] and 11.6 µM in experiment [2].

Turning to `CN1c2ccccc2C(c2ccccc2F)=NCC1CNC(=O)Cc1c[nH]c2ccccc12` (stereo not drawn) [Example 4, 1-methyl-2-(1H-indol-3-yl)methylcarbonylaminomethyl-5-(2'-fluorophenyl)-2,3-dihydro-1H-1,4-benzodiazepine hydrate], the IC50 was found to be 56 µM in experiment [1] (read-out: IC50 CCK, Brain) and 1 µM in experiment [2].

With `CSCC[C@H](NC(=O)[C@H](Cc1ccc(OS(=O)(=O)O)cc1)NC(=O)OCc1ccccc1)C(=O)NCC(=O)N[C@@H](Cc1c[nH]c2ccccc12)C(=O)N[C@@H](CCSC)C(=O)N[C@@H](CC(=O)O)C(N)=O` [Cbz-Tyr(SO3 H)-Met-Gly-Trp-Met-Asp-NH2] (Cbz-[sY]MGWMD-NH2), the CCK antagonism entry in experiment [5] was “can function as CCK antagonists”.
